{"source": "patent US12419936B2", "about": "“Collagen peptide-based medicament compositions and devices and methods of production and use thereof” (SUSTAIN HOLDINGS, LLC, priority 2019, dated 2025)", "key": {"[1]": {"settings": "cited from earlier work; for melting temperature of a triple helix: Sakakibara et al. 1973"}, "[2]": {"test_system": "ARPE19 cells", "test": "Adherence of RPE cells to MMP-1-digested (cut) collagen plates treated with CMP", "assay_type": "cell-based, human", "settings": "100 μM CMP on cut collagen; 19 hours", "experimental": "(§1) Plates were then rinsed with culture medium, and ARPE-19 cells were plated uniformly on plates having one of three surface coating conditions: (1) intact collagen; (2) cut collagen; and (3) cut collagen+CMP. Plates were then incubated at 37° C. for 19 hours, and then examined for cell adherence by phase contrast microscopy."}, "[3]": {"test_system": "corneal epithelium in wounded mouse eyes", "test": "In vivo healing of mouse corneal epithelium, wound size by fluorescein staining", "settings": "100 ng/ml EGF, positive control; 16 hours post-treatment", "source_text": "To examine the possible therapeutic effects of CMPs and CMP-TC conjugates of the invention, studies were designed to test certain CMPs and CMP-TC conjugates in an in vivo setting—the healing of the corneal epithelium in wounded mouse eyes. Female mice (8-week-old C57BL/6; seven mice per sample tested) were anesthetized, and corneas of the mouse eyes were wounded with a 1.5 mm superficial epithelial wound of sufficient depth to expose the anterior stroma thereby damaging and exposing the collagen matrix. […] Following wounding, corneas were treated with 25 nM (about 3 mg/kg) CMPs or CMP-TC conjugates, in aqueous PBS. Negative control mice were treated with vehicle only (PBS), and positive control mice were treated with 100 ng/ml epidermal growth factor (EGF). Wound size at various time points over 48 hours was examined by fluorescein staining (see Carlson et al., id.), and documented via fluorescent photomicrography, and quantified using Image J software (see Rush, J. S. et al., Investig. Ophthalmol. Visual Sci. 57 (14): 5864-5871 (2016); Rush, J. S. et al., Investig. Ophthalmol. Visual Sci. 55 (8): 4691-4699 (2014))."}, "[4]": {"test_system": "dorsal root ganglia (DRG) neurons", "test": "Neurite outgrowth in dorsal root ganglion neurons on cut collagen plates treated with CMP", "assay_type": "cell-based, rat", "settings": "100 μM CMP on cut collagen; 48 hours", "experimental": "as §1, with “DRG neuronal” for “ARPE-19”, “48” for “19”, “morphology and neurite outgrowth” for “cell adherence”, “inverted brightfield” for “phase contrast”"}}, "data": [{"substance": "(ProProGly)10", "values": [{"measurement": "melting temperature of a triple helix", "setting": "[1]", "value": 24, "unit": "°C"}]}, {"substance": "(ProHypGly)10", "values": [{"measurement": "melting temperature of a triple helix", "setting": "[1]", "value": 58, "unit": "°C"}, {"measurement": "rate at which chains fold into a triple helix", "setting": "[1]; relative to (ProProGly)10, Chopra and Ananthanarayanan 1982", "value": "substantially greater"}]}, {"substance": "Flp-Hyp-Gly-Flp-Hyp-Gly-Flp-Hyp-Gly-Flp-Hyp-Gly-Flp-Hyp-Gly-Flp-Hyp-Gly-Flp-Hyp-Gly [CMP B]", "values": [{"measurement": "adherence of RPE cells in photomicrographs vs. cut collagen plates", "setting": "[2]", "value": "increased adherence"}, {"measurement": "adherence of RPE cells, quantitative, normalized to cut collagen", "setting": "[2]", "value": "significantly increased adhesion"}]}, {"substance": "epidermal growth factor [EGF, positive control in the corneal wound model, 100 ng/ml]", "values": [{"measurement": "wound healing in mouse cornea and corneal stroma (diameter and intensity of fluorescein fluorescence)", "setting": "[3]", "value": "lower level of healing"}]}, {"substance": "Pro-Flp-Gly-Pro-Flp-Gly-Pro-Cys-Gly-Pro-Flp-Gly-Pro-Flp-Gly-Pro-Flp-Gly-Pro-Flp-Gly [CMP D]", "values": [{"measurement": "length of the longest neurite normalized to cut collagen", "setting": "[4]", "value": "even exceeded that observed with intact collagen"}, {"measurement": "adherence of RPE cells, quantitative, normalized to cut collagen", "setting": "[2]", "value": "significantly increased adhesion"}]}]}
